The source of these data is US10526345B2, “Compounds as GPR119 agonists” (Mankind Pharma Ltd., priority 2016, dated 2020).

Usually EC50 stands for the midpoint of the concentration-response curve.

Molecules are shown by their SMILES.

The first experiment has as its target T1, hGPR119 (Homo sapiens, UniProt Q8TDV5).
T1 construct: expressed in transfected cells; host or cells: CHO
T1 sequence (Q8TDV5 1-335): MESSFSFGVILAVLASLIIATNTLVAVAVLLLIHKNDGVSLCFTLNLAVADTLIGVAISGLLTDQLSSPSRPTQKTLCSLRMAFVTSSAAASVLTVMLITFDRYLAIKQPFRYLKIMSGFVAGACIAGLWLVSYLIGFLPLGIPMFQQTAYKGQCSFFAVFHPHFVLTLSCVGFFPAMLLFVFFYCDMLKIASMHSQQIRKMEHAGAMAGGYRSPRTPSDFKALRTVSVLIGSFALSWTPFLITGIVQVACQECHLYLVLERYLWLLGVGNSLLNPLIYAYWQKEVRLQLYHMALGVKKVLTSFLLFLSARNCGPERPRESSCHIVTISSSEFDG
The experiment is described as follows: In vitro cyclic AMP assay (Cisbio dynamic 2 HTRF kit) in CHO-hGPR119 cells. The format is cell-based. Particulars: 1 h, cAMP, compound at 1 μM, 60 min, read-out: Induction (% induction at 1 μM). Background: TR-FRET usually uses a lanthanide donor and a delayed reading to cut background.
In the case of `CC(C)c1noc(N2CCC(C(C)Oc3nc4ccc(-c5cc[n+]([O-])cc5)nc4s3)CC2)n1` (centres unmarked) [Compound 1098, 4-(2-(1-(1-(3-isopropyl-1,2,4-oxadiazol-5-yl)piperidin-4-yl)ethoxy)thiazolo[5,4-b]pyridin-5-yl)pyridine 1-oxide], the activation at 1 µM was 48%.

Turning to `CC(Oc1nc2ccc(-c3ccc(S(C)(=O)=O)cc3)nc2s1)C1CCN(c2cnc(Cl)cn2)CC1` (centres unmarked) [Compound 1148, 2-(1-(1-(5-chloropyrazin-2-yl)piperidin-4-yl)ethoxy)-5-(4-(methylsulfonyl)phenyl)thiazolo[5,4-b]pyridine], the activation at 1 µM was determined as 70%.

Take `CC(C)c1noc(C2CCN(c3ccc4nc(-c5ccc(S(C)(=O)=O)cc5)sc4n3)CC2)n1` [Compound 1003, 3-isopropyl-5-(1-(2-(4-(methylsulfonyl)phenyl)thiazolo[5,4-b]pyridin-5-yl)piperidin-4-yl)-1,2,4-oxadiazole]: the activation at 1 µM was 29%.

`CC(C)c1noc(N2CCC(Oc3nc4ccc(-c5ccc(S(C)(=O)=O)cc5)nc4s3)CC2)n1` [Compound 1007, 3-isopropyl-5-(4-((5-(4-(methylsulfonyl)phenyl)thiazolo[5,4-b]pyridin-2-yl)oxy)piperidin-1-yl)-1,2,4-oxadiazole]: the activation at 1 µM amounted to 39%.

For `CC(C)c1noc(N2CCC(C(Oc3nc4ccc(-c5ccc(S(C)(=O)=O)nc5)nc4s3)C(F)(F)F)CC2)n1` (centres unmarked) [Compound 1102, 3-isopropyl-5-(4-(2,2,2-trifluoro-1-((5-(6-(methylsulfonyl)pyridin-3-yl)thiazolo[5,4-b]pyridin-2-yl)oxy)ethyl)piperidin-1-yl)-1,2,4-oxadiazole], the activation at 1 µM was found to be 72%.

For the molecule `CC(C)OC(=O)N1CCC(N(C)c2nc3ccc(-c4ccc(S(C)(=O)=O)cc4)nc3s2)CC1` [Compound 1016, isopropyl 4-(methyl(5-(4-(methylsulfonyl)phenyl)thiazolo[5,4-b]pyridin-2-yl)amino)piperidine-1-carboxylate], the activation at 1 µM is 0%.

As for `CCc1noc(N2CCC(C(C)Oc3nc4ccc(-c5ccc(S(C)(=O)=O)nc5)nc4s3)CC2)n1` (centres unmarked) [Compound 1156, 2-(1-(1-(3-ethyl-1,2,4-oxadiazol-5-yl)piperidin-4-yl)ethoxy)-5-(6-(methylsulfonyl)pyridin-3-yl)thiazolo[5,4-b]pyridine], the activation at 1 µM was found to be 54%.

`CC(C)c1noc(N2CCC(COc3nc4ccc(-c5ccncc5F)nc4s3)CC2)n1` [Compound 1084, 5-(4-(((5-(3-fluoropyridin-4-yl)thiazolo[5,4-b]pyridin-2-yl)oxy)methyl)piperidin-1-yl)-3-isopropyl-1,2,4-oxadiazole]: the activation at 1 µM was determined as 12%.

As for `CC(C)OC(=O)Oc1nc2ccc(-c3ccc(S(C)(=O)=O)cc3)nc2s1` [Compound 1019, isopropyl (5-(4-(methylsulfonyl)phenyl)thiazolo[5,4-b]pyridin-2-yl)carbonate], the activation at 1 µM came to 0%.

Consider `C[C@H](Oc1nc2ccc(-c3ccc(S(C)(=O)=O)nc3)nc2s1)C1CCN(c2nc(C(F)(F)F)no2)CC1` (stereo in doubt) [Compound 1145, 2-(1-(1-(3-(trifluoromethyl)-1,2,4-oxadiazol-5-yl)piperidin-4-yl)ethoxy)-5-(6-(methylsulfonyl)pyridin-3-yl)thiazolo[5,4-b]pyridine], for which the activation at 1 µM worked out at 65%.

For `CC(C)c1noc(C2CCN(c3nc4ccc(-c5ccc(C(=O)N6CCOCC6)cc5)nc4s3)CC2)n1` [Compound 1029, (4-(2-(4-(3-isopropyl-1,2,4-oxadiazol-5-yl)piperidin-1-yl)thiazolo[5,4-b]pyridin-5-yl)phenyl)(morpholino)methanone], the activation at 1 µM came to 47%.

As for `CC(C)OC(=O)N1CC=C(CCOc2nc3ccc(-c4ccc(S(C)(=O)=O)cc4)nc3s2)CC1` [Compound 1034, isopropyl 4-(2-((5-(4-(methylsulfonyl)phenyl)thiazolo[5,4-b]pyridin-2-yl)oxy)ethyl)-5,6-dihydropyridine-1(2H)-carboxylate], the activation at 1 µM was 0.3%.

With `CC(C)c1noc(N2CCC(Oc3nc4ccc(Oc5ccc(S(C)(=O)=O)cc5)nc4s3)CC2)n1` [Compound 1005, 3-isopropyl-5-(4-((5-(4-(methylsulfonyl)phenoxy)thiazolo[5,4-b]pyridin-2-yl)oxy)piperidin-1-yl)-1,2,4-oxadiazole], the activation at 1 µM is 6%.

For the molecule `CC(C=C1CCN(c2nc(C(C)C)no2)CC1)Oc1nc2ccc(-c3ccc(S(C)(=O)=O)cc3)nc2s1` (centres unmarked) [Compound 1044, 3-isopropyl-5-(4-(2-((5-(4-(methylsulfonyl)phenyl)thiazolo[5,4-b]pyridin-2-yl)oxy)propylidene)piperidin-1-yl)-1,2,4-oxadiazole], the activation at 1 µM turned out to be 3%.

`CC(C)c1noc(N2CCC(C(C)Oc3nc4ccc(-c5ccc(S(=O)(=O)C6CC6)cc5)nc4s3)CC2)n1` (centres unmarked) [Compound 1063, 5-(4-(1-((5-(4-(cyclopropylsulfonyl)phenyl)thiazolo[5,4-b]pyridin-2-yl)oxy)ethyl)piperidin-1-yl)-3-isopropyl-1,2,4-oxadiazole]: the activation at 1 µM stood at 58%.

Regarding `CC(C)c1noc(N2CCC(C(C)Oc3nc4ccc(-c5cc[nH]c(=O)c5)nc4s3)CC2)n1` (centres unmarked) [Compound 1126, 4-(2-(1-(1-(3-isopropyl-1,2,4-oxadiazol-5-yl)piperidin-4-yl)ethoxy)thiazolo[5,4-b]pyridin-5-yl)pyridin-2(1H)-one], the activation at 1 µM came to 42%.

With `COCc1cnc(N2CCC([C@@H](C)Oc3nc4ccc(-c5ccc(S(C)(=O)=O)nc5)nc4s3)CC2)nc1` [Compound 1165, 2-((R)-1-(1-(5-(methoxymethyl)pyrimidin-2-yl)piperidin-4-yl)ethoxy)-5-(6-(methylsulfonyl)pyridin-3-yl)thiazolo[5,4-b]pyridine], the activation at 1 µM is 70%.

Consider `COCCNC(=O)c1ccc(-c2ccc3nc(N4CCC(c5nc(C(C)C)no5)CC4)sc3n2)cc1` [Compound 1024, 4-(2-(4-(3-isopropyl-1,2,4-oxadiazol-5-yl)piperidin-1-yl)thiazolo[5,4-b]pyridin-5-yl)-N-(2-methoxyethyl)benzamide], for which the activation at 1 µM turned out to be 53%.

With `CC(C)c1noc(N2CCC(C(C)Oc3nc4ccc(-c5ccc(S(C)(=O)=O)cc5F)nc4s3)CC2)n1` (centres unmarked) [Compound 1111, 5-(4-(1-((5-(2-fluoro-4-(methylsulfonyl)phenyl)thiazolo[5,4-b]pyridin-2-yl)oxy)ethyl)piperidin-1-yl)-3-isopropyl-1,2,4-oxadiazole], the activation at 1 µM turned out to be 24%.

Take `CCCc1cnc(N2CCC([C@@H](C)Oc3nc4ccc(-c5ccc(S(C)(=O)=O)cc5)nc4s3)CC2)nc1` [Compound 1090, (R)-5-(4-(methylsulfonyl)phenyl)-2-(1-(1-(5-propylpyrimidin-2-yl)piperidin-4-yl)ethoxy)thiazolo[5,4-b]pyridine]: the activation at 1 µM is 54%.

On to `CC(C)c1noc(N2CCC(C(Oc3nc4ccc(-c5ccc(S(C)(=O)=O)cc5)nc4s3)C(F)(F)F)CC2)n1` (centres unmarked) [Compound 1094, 3-isopropyl-5-(4-(2,2,2-trifluoro-1-((5-(4-(methysulfonyl)phenyl)thiazolo[5,4-b]pyridin-2-yl)oxy)ethyl)piperidin-1-yl)-1,2,4-oxadiazole], for which the activation at 1 µM worked out at 24%.

As to `CC(C)c1noc(N2CCC(C(C)Oc3nc4ccc(-c5ccnc(F)c5)nc4s3)CC2)n1` (centres unmarked) [Compound 1081, 5-(4-(1-((5-(2-fluoropyridin-4-yl)thiazolo[5,4-b]pyridin-2-yl)oxy)ethyl)piperidin-1-yl)-3-isopropyl-1,2,4-oxadiazole], the activation at 1 µM was determined as 82%.

For `COCC(Oc1nc2ccc(-c3ccc(S(C)(=O)=O)cc3)nc2s1)C1CCN(c2nc(C(C)C)no2)CC1` (centres unmarked) [Compound 1036, 3-isopropyl-5-(4-(2-methoxy-1-((5-(4-(methylsulfonyl)phenyl)thiazolo[5,4-b]pyridin-2-yl)oxy)ethyl)piperidin-1-yl)-1,2,4-oxadiazole], the activation at 1 µM came out at 47%.

As for `CC(C)c1noc(C2CCN(c3nc4ccc(-c5ccncc5)nc4s3)CC2)n1` [Compound 1077, 3-isopropyl-5-(1-(5-(pyridin-4-yl)thiazolo[5,4-b]pyridin-2-yl)piperidin-4-yl)-1,2,4-oxadiazole], the activation at 1 µM was 12%.

For the molecule `CC(C)c1noc(C2CCN(c3nc4ccc(-c5ccc(S(C)(=O)=O)nc5)nc4s3)CC2)n1` [Compound 1080, 3-isopropyl-5-(1-(5-(6-(methylsulfonyl)pyridin-3-yl)thiazolo[5,4-b]pyridin-2-yl)piperidin-4-yl)-1,2,4-oxadiazole], the activation at 1 µM came out at 40%.

For `CC(C)c1noc(N2CCC(C(C)Oc3nc4ccc(-c5ccc(S(C)(=O)=O)cc5)nc4s3)CC2)n1` (centres unmarked) [Compound 1020, 3-isopropyl-5-(4-(1-((5-(4-(methylsulfonyl)phenyl)thiazolo[5,4-b]pyridin-2-yl)oxy)ethyl)piperidin-1-yl)-1,2,4-oxadiazole], the activation at 1 µM came out at 68%.

With `CC(C)c1noc(N2CCC([C@H](C)Oc3nc4ccc(-c5cnc(S(C)(=O)=O)nc5)nc4s3)CC2)n1` [Compound 1133, 2-((S)-1-(1-(3-isopropyl-1,2,4-oxadiazol-5-yl)piperidin-4-yl)ethoxy)-5-(2-(methylsulfonyl)pyrimidin-5-yl)thiazolo[5,4-b]pyridine], the activation at 1 µM came out at 55%.

Turning to `CC(C)c1noc(N2CCC(C(C)Oc3nc4ccc(-c5ccc(C(=O)NC6CC6)cc5)nc4s3)CC2)n1` (centres unmarked) [Compound 1049, N-cyclopropyl-4-(2-(1-(1-(3-isopropyl-1,2,4-oxadiazol-5-yl)piperidin-4-yl)ethoxy)thiazolo[5,4-b]pyridin-5-yl)benzamide], the activation at 1 µM was found to be 14%.

The same experiment, now with this note: cAMP.
For `CC(C)c1noc(N2CCC(C(C)Oc3nc4ccc(-c5ccc(S(C)(=O)=O)cc5)nc4s3)CC2)n1` (centres unmarked) [Compound 1020, 3-isopropyl-5-(4-(1-((5-(4-(methylsulfonyl)phenyl)thiazolo[5,4-b]pyridin-2-yl)oxy)ethyl)piperidin-1-yl)-1,2,4-oxadiazole], the EC50 is 100 to 500 nM.
